Results taken from ChEMBL document CHEMBL2074195, “The role of intestinal P-glycoprotein in the interaction of digoxin and rifampin” (J Clin Invest, 1999).

Target: ATP-dependent translocase ABCB1 (Homo sapiens, UniProt P08183)
Experiment: TP_TRANSPORTER: Western in vivo, quantitative immunohistochemistry
Format: functional, organism-based

Chain of ATP-dependent translocase ABCB1 (P08183 whole entry): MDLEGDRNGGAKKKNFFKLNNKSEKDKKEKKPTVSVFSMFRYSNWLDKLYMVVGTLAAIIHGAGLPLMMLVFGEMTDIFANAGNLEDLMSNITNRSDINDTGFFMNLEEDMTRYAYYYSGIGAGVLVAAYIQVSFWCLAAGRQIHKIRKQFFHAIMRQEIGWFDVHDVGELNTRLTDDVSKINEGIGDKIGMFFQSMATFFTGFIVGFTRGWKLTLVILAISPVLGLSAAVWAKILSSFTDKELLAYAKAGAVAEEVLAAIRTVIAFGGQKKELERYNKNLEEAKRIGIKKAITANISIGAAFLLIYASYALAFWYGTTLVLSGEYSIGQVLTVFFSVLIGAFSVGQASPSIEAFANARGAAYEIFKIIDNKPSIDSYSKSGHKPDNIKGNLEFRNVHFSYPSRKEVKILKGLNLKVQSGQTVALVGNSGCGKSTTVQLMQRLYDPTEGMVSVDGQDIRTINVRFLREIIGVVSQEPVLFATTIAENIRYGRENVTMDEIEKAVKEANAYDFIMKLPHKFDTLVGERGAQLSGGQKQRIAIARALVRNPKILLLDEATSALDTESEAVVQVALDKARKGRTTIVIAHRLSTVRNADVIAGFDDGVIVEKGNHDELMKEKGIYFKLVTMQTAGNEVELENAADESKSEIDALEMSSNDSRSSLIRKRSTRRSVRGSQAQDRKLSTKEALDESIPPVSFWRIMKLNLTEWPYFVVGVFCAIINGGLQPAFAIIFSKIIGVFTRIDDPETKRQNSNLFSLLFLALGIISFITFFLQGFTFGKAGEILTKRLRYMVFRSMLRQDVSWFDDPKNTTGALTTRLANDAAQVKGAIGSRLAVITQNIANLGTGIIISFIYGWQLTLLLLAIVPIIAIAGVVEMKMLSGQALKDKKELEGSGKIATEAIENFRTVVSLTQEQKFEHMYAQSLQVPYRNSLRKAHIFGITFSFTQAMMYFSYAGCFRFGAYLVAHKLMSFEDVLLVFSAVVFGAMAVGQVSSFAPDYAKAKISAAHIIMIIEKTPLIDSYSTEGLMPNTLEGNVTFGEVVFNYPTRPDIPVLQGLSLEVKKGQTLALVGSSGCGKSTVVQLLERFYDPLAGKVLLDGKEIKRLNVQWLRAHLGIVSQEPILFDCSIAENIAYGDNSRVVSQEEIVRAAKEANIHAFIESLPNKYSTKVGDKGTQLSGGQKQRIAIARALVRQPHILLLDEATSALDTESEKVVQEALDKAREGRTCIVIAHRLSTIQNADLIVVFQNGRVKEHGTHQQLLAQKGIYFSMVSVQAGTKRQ

CO[C@H]1/C=C/O[C@@]2(C)Oc3c(C)c(O)c4c(O)c(c(/C=N/N5CCN(C)CC5)c(O)c4c3C2=O)NC(=O)/C(C)=C\C=C\[C@H](C)[C@H](O)[C@@H](C)[C@@H](O)[C@@H](C)[C@H](OC(C)=O)[C@@H]1C [RIFAMPIN]
Activity: inducer [+]
